Assays:
[1] = Octanol-water partition coefficient, log P of the compound; format: physicochemical
[2] = molecular target: cGMP-specific 3',5'-cyclic phosphodiesterase (Homo sapiens, UniProt O76074)

SMILES	logP [1]	IC50 [2] [nM]
CCN1C(=O)c2c(nc(C(N)=O)n2Cc2ccc(OC)cc2)N2C1=N[C@@H]1CCC[C@@H]12	2.47	–
CCN1C(=O)c2c(nc(OC)n2Cc2ccc(O)c(Br)c2)N2C[C@@H](Cc3ccccc3)N=C12	5.63	–
CCN1C(=O)c2c(nc(C(=O)NC)n2Cc2ccc(O)c(Cl)c2)N2C1=N[C@@H]1CCC[C@@H]12	3	–
CCN1C(=O)c2c(nc(OC)n2Cc2ccc(O)c(Cl)c2)N2C[C@@H](Cc3ccccc3)N=C12	5.36	–
CCN1C(=O)c2c(nc(OC)n2Cc2ccc(OC)c(C#N)c2)N2C[C@@H](Cc3ccccc3)N=C12	5.1	–
CCN1C(=O)c2c(nc(C#Cc3ccccc3)n2Cc2ccc(OC)cc2)N2C1=N[C@@H]1CCC[C@@H]12	5.5	–
CCOc1nc2c(n1Cc1ccc(O)c(Cl)c1)C(=O)N(CC)C1=N[C@@H]3CCC[C@@H]3N12	4.4	–
CCN1C(=O)c2c(nc(C(N)=O)n2Cc2ccc(O)c(Cl)c2)N2C[C@@H](Cc3ccccc3)N=C12	4.06	–
CCN1C(=O)c2c(nc(C#Cc3ccccc3)n2Cc2ccc(Cl)cc2)N2C1=N[C@@H]1CCC[C@@H]12	6.19	–
CCN1C(=O)c2c(nc(OC)n2Cc2ccc(O)c(Cl)c2)N2C1=N[C@@H]1CCC[C@@H]12	4.06	–
CCN1C(=O)c2c(nc(OC)n2Cc2ccc(OC)c(Cl)c2)N2C1=N[C@@H]1CCC[C@@H]12	4.32	–
CCN1C(=O)c2c(nc(C(N)=O)n2Cc2ccc(OC)c(Cl)c2)N2C[C@@H](Cc3ccccc3)N=C12	4.32	–
CCN1C(=O)c2c(ncn2Cc2ccc(OC)c(Cl)c2)N2C1=N[C@@H]1CCC[C@@H]12	3.47	–
CCN1C(=O)c2c(nc(C(=O)NC)n2Cc2ccc(OC)c(Cl)c2)N2C1=N[C@@H]1CCC[C@@H]12	3.26	–
CCN1C(=O)c2c(nc(OCc3ccccc3)n2Cc2ccc(O)c(Cl)c2)N2C[C@@H](Cc3ccccc3)N=C12	7.09	–
CCN1C(=O)c2c(nc(C#Cc3ccccc3)n2Cc2ccc(O)cc2)N2C1=N[C@@H]1CCC[C@@H]12	5.24	–
CCSc1nc2c(n1Cc1ccc(OC)cc1)C(=O)N(CC)C1=N[C@@H]3CCC[C@@H]3N12	4.67	–
CCN1C(=O)c2c(nc(OC)n2Cc2ccc(OC)c(Br)c2)N2C1=N[C@@H]1CCC[C@@H]12	4.59	–
CCN1C(=O)c2c(nc(OC)n2Cc2ccc(OC)c(Br)c2)N2C[C@@H](Cc3ccccc3)N=C12	5.89	–
CCOc1nc2c(n1Cc1ccc(OC)cc1)C(=O)N(CC)C1=N[C@@H]3CCC[C@@H]3N12	4.1	–

SMILES	logP [1]	IC50 [2] [nM]
CCN1C(=O)c2c(ncn2Cc2ccc(OC)c(Br)c2)N2C1=N[C@@H]1CCC[C@@H]12	3.74	–
CCN1C(=O)c2c(nc(C(N)=O)n2Cc2ccc(O)cc2)N2C1=N[C@@H]1CCC[C@@H]12	2.2	–
CCOc1nc2c(n1Cc1ccc(OC)c(Cl)c1)C(=O)N(CC)C1=N[C@@H]3CCC[C@@H]3N12	4.66	–
CCN1C(=O)c2c(nc(Cc3ccccc3)n2Cc2ccc(C)cc2)N2C1=N[C@@H]1CCC[C@@H]12	5.95	–
CCN1C(=O)c2c(nc(C#N)n2Cc2ccc(OC)cc2)N2C1=N[C@@H]1CCC[C@@H]12	3.59	–
CCN1C(=O)c2c(nc(OC)n2Cc2ccc(O)c(Br)c2)N2C1=N[C@@H]1CCC[C@@H]12	4.33	–
CCSc1nc2c(n1Cc1ccc(O)cc1)C(=O)N(CC)C1=N[C@@H]3CCC[C@@H]3N12	4.41	–
CCN1C(=O)c2c(nc(Cc3ccccc3)n2Cc2ccccc2)N2C1=N[C@@H]1CCC[C@@H]12	5.47	–
CCN1C(=O)c2c(nc(C(=O)OC)n2Cc2ccc(OC)cc2)N2C1=N[C@@H]1CCC[C@@H]12	3.38	–
CCN1C(=O)c2c(nc(C(N)=O)n2Cc2ccc(O)c(Cl)c2)N2C1=N[C@@H]1CCC[C@@H]12	2.76	–
CCN1C(=O)c2c(nc(C(N)=O)n2Cc2ccc(O)c(Br)c2)N2C1=N[C@@H]1CCC[C@@H]12	3.03	–
CCN1C(=O)c2c(nc(Cc3ccccc3)n2Cc2ccc(Cl)cc2)N2C1=N[C@@H]1CCC[C@@H]12	6.03	–
CCN1C(=O)c2c(nc(C(N)=O)n2Cc2ccc(OC)c(Br)c2)N2C1=N[C@@H]1CCC[C@@H]12	3.3	–
CCN1C(=O)c2c(nc(Cc3ccccc3)n2Cc2ccc3c(c2)OCO3)N2C1=N[C@@H]1CCC[C@@H]12	5.25	–
CCN1C(=O)c2c(nc(Cc3ccccc3)n2Cc2ccc(OC)c(Cl)c2)N2C1=N[C@@H]1CCC[C@@H]12	5.9	–
CCOc1nc2c(n1Cc1ccc(OC)c(Br)c1)C(=O)N(CC)C1=N[C@@H]3CCC[C@@H]3N12	4.93	–
CCN1C(=O)C2C(N=CN2Cc2ccc(O)c(Br)c2)N2C1=N[C@@H]1CCC[C@@H]12 (some centres undefined)	–	6.31
CCN1C(=O)c2c(nc(C(F)(F)F)n2Cc2ccc(O)cc2)N2C1=N[C@@H]1CCC[C@@H]12	4.22	–
CCN1C(=O)C2C(N=C(OC)N2Cc2ccc(OC)c(Cl)c2)N2C[C@@H](Cc3ccccc3)N=C12 (some centres undefined)	–	1.58

Source: ChEMBL document CHEMBL1158171, “Bioactivities of a series of phosphodiesterase type 5 (PDE-5) inhibitors as modelled by MIA-QSAR” (Eur J Med Chem, 2008)
